# From patent US20190231785A1, “PHOSPHODIESTERASE INHIBITOR TREATMENT” (Cyrano Therapeutics, Inc., priority 2012, published 2019)
# Marks after values point to notes of the source that are not given here.
# System: patients with hyposmia
# Test: Olfactometry (DT, RT, ME, H; forced-choice, three-stimuli, stepwise-staircase, four odors), open trial of oral theophylline
# Assay type: in vivo, human
# Source text: Patients initially reported their sensory dysfunction as either loss of taste (e.g., flavor) and/or smell function. This subjective response was documented by objective psychophysical measurements of olfactory function administered to each patient by use of a forced-choice, three-stimuli, stepwise-staircase technique in a fixed, controlled design (1, 53). Efficacy of this technique and results of testing were previously documented in a double-blind clinical trial (53). Four odors were used; they were pyridine (dead-fish odor), nitrobenzene (bitter-almond odor), thiophene (petroleum-like odor) and amyl acetate (banana-oil odor). Detection thresholds (DT), recognition thresholds (RT) and magnitude estimation (ME) values for each odor were determined as previously described (1, 53). Thresholds were converted into bottle units (BU) as previously described (53) and results reported as M±SEM of correct responses for each odor in each treatment group; ME was reported in % and results calculated to obtain M±SEM for each treatment group for all correct responses using data for the four highest odor concentrations presented (from 10^−2M—an absolute odor concentration).
# In addition, each patient graded the hedonic (H) value of each odor presented for these same odor concentrations (from 10^−2M—an absolute odor concentration using a −100-0-+100 scale). […] Results were obtained by calculating the arithmetical sum of each correct recognition response for each odor with respect to its pleasantness, unpleasantness or neutrality. Arithmetic M±SEM were obtained for each treatment group for each odor presented.
# After determination of hyposmia, patients were treated in an open label, fixed design, controlled open trial. Patients were given an oral extended release theophylline in divided daily doses taken in the middle of breakfast and lunch. All patients were initially given 200 mg of theophylline; changes in this dose were made based upon subjective responses to therapy. If at a subsequent return visit, patients reported ≥5% subjective improvement in overall smell function, they continued on this same dose of theophylline and were reevaluated after four to six months of continued treatment. Results from any subsequent return from these improved patients were not included in any subsequent data report. All subsequent comparisons between treated and untreated patients were made only between those patients continuing in the study compared to their own measurements obtained in the untreated state. If patients reported <5% subjective improvement, their theophylline dose was increased by 200 mg daily and they were scheduled for retesting at the study site after two to four months at this new dosage. For patients that reported <5% improvement, this sequence continued until patients reached 800 mg of theophylline, at which time the study was considered completed.
# Patients returned for reevaluation after two to four months of treatment. Measurements of blood serum theophylline were measured by a fluorescence polarization assay (Abbott, Chicago, Ill.). At this time, subjective changes in smell function were measured independently (compared to patient's memory of previous normal smell function monitored by use of the patients' daily measurements) using the scale from −100-0-+100 previously described (vs). After independently recording their subjective responses, smell function was measured for all four odors with DT, RT, ME and H determined without recourse to prior measurements.
# Since data for all measurements from each patient group (local or distant) on each dose level were combined mean and SEM for each measurement (DT, RT, ME, H) of smell function for each treatment group were calculated on this basis. Differences in measurements between before treatment and each treatment level were calculated and significance of differences estimated using Student t tests (values p<0.05 considered significant). […]
# [1] = Type II hyposmia, oral 800 mg, after treatment (16 patients)
# [2] = Type III hyposmia, oral 200 mg, after treatment (4 patients)
# [3] = Type III hyposmia, oral 400 mg, after treatment (2 patients)
# [4] = Type III hyposmia, oral 600 mg, after treatment (4 patients)
# [5] = oral 800 mg, vs before treatment
smiles,measurement,setting,value
Cn1c(=O)c2[nH]cnc2n(C)c1=O [theophylline],"recognition threshold (RT), thiophene","Type II hyposmia, oral 600 mg, after treatment (105 patients)",8.1 ± 0.3^a BU
same,"detection threshold (DT), amyl acetate",[1],4.6 ± 0.7^a BU
same,"detection threshold (DT), nitrobenzene",[1],4.6 ± 0.9^a BU
same,"detection threshold (DT), pyridine",[1],4.7 ± 0.7^a BU
same,"detection threshold (DT), thiophene",[1],4.9 ± 0.7^a BU
same,"hedonic value (H), amyl acetate",[1],13 ± 9%
same,"hedonic value (H), nitrobenzene",[1],22 ± 11%
same,"hedonic value (H), pyridine",[1],−31 ± 9%
same,"hedonic value (H), thiophene",[1],−24 ± 8%
same,"magnitude estimation (ME), amyl acetate",[1],38 ± 6^e %
same,"magnitude estimation (ME), nitrobenzene",[1],42 ± 8^b %
same,"magnitude estimation (ME), pyridine",[1],43 ± 5^e %
same,"magnitude estimation (ME), thiophene",[1],33 ± 6%
same,"recognition threshold (RT), amyl acetate",[1],7.1 ± 0.6^a BU
same,"recognition threshold (RT), nitrobenzene",[1],5.1 ± 0.9^a BU
same,"recognition threshold (RT), pyridine",[1],7.1 ± 0.7^a BU
same,"recognition threshold (RT), thiophene",[1],8.0 ± 1.0 BU
same,"detection threshold (DT), amyl acetate",[2],2.8 ± 0.5 BU
same,"detection threshold (DT), nitrobenzene",[2],3.8 ± 0.7 BU
same,"detection threshold (DT), pyridine",[2],4.0 ± 0.6 BU
same,"detection threshold (DT), thiophene",[2],3.2 ± 0.8 BU
same,"hedonic value (H), amyl acetate",[2],14 ± 13%
same,"hedonic value (H), nitrobenzene",[2],13 ± 12%
same,"hedonic value (H), pyridine",[2],−40 ± 13%
same,"hedonic value (H), thiophene",[2],−40 ± 18%
same,"magnitude estimation (ME), amyl acetate",[2],32 ± 10%
same,"magnitude estimation (ME), nitrobenzene",[2],33 ± 8%
same,"magnitude estimation (ME), pyridine",[2],45 ± 11%
same,"magnitude estimation (ME), thiophene",[2],47 ± 15%
same,"recognition threshold (RT), amyl acetate",[2],5.2 ± 1.6 BU
same,"recognition threshold (RT), nitrobenzene",[2],5.0 ± 0.6 BU
same,"recognition threshold (RT), pyridine",[2],5.2 ± 0.5 BU
same,"recognition threshold (RT), thiophene",[2],3.8 ± 0.6 BU
same,"detection threshold (DT), amyl acetate",[3],2 BU
same,"detection threshold (DT), nitrobenzene",[3],2.5 BU
same,"detection threshold (DT), pyridine",[3],5.0 BU
same,"detection threshold (DT), thiophene",[3],1 BU
same,"hedonic value (H), amyl acetate",[3],75%
same,"hedonic value (H), nitrobenzene",[3],−62%
same,"hedonic value (H), pyridine",[3],−40%
same,"hedonic value (H), thiophene",[3],−99%
same,"magnitude estimation (ME), amyl acetate",[3],75%
same,"magnitude estimation (ME), nitrobenzene",[3],79%
same,"magnitude estimation (ME), pyridine",[3],45%
same,"magnitude estimation (ME), thiophene",[3],99%
same,"recognition threshold (RT), amyl acetate",[3],3 BU
same,"recognition threshold (RT), nitrobenzene",[3],4.0 BU
same,"recognition threshold (RT), pyridine",[3],5.0 BU
same,"recognition threshold (RT), thiophene",[3],1 BU
same,"detection threshold (DT), amyl acetate",[4],2.5 ± 1.0 BU
same,"detection threshold (DT), nitrobenzene",[4],3.8 ± 0.9 BU
same,"detection threshold (DT), pyridine",[4],3.8 ± 0.9 BU
same,"detection threshold (DT), thiophene",[4],2.0 ± 1.0 BU
same,"hedonic value (H), amyl acetate",[4],28 ± 19%
same,"hedonic value (H), nitrobenzene",[4],12 ± 16%
same,"hedonic value (H), pyridine",[4],−26 ± 22%
same,"hedonic value (H), thiophene",[4],−35 ± 24%
same,"magnitude estimation (ME), amyl acetate",[4],31 ± 17%
same,"magnitude estimation (ME), nitrobenzene",[4],33 ± 13%
same,"magnitude estimation (ME), pyridine",[4],41 ± 15%
same,"magnitude estimation (ME), thiophene",[4],42 ± 20%
same,"recognition threshold (RT), amyl acetate",[4],4.8 ± 1.7 BU
same,"recognition threshold (RT), nitrobenzene",[4],4.5 ± 1.3 BU
same,"recognition threshold (RT), pyridine",[4],5.5 ± 0.9 BU
same,"recognition threshold (RT), thiophene",[4],3.8 ± 0.9 BU
same,"decrease in H, pyridine",oral 200 mg (Table IV),2%
same,"decrease in H, thiophene",oral 200 mg (Table IV),2%
same,"increase in H, amyl acetate (more pleasant)",oral 200 mg (Table IV),2%
same,"increase in H, nitrobenzene (more pleasant)",oral 200 mg (Table IV),2%
same,"increase in ME, amyl acetate",oral 200 mg (Table IV),5%
same,"increase in ME, nitrobenzene",oral 200 mg (Table IV),5%
same,"increase in ME, pyridine",oral 200 mg (Table IV),6%
same,"increase in ME, thiophene",oral 200 mg (Table IV),5%
same,"total mean increase in ME, all odors",oral 200 mg (Table IV),5.1%
same,"increase of H value, amyl acetate (more pleasant)","oral 200 mg, vs before treatment, not statistically significant",50%
same,"change in H, amyl acetate (decreased, became more pleasant)",oral 400 mg (Table V),1%
same,"change in H, nitrobenzene (decreased, became more pleasant)",oral 400 mg (Table V),4%
same,"change in H, pyridine (increases in H values)",oral 400 mg (Table V),9%
same,"change in H, thiophene (increases in H values)",oral 400 mg (Table V),7%
same,"increase in ME, amyl acetate",oral 400 mg (Table V),8%
same,"increase in ME, nitrobenzene",oral 400 mg (Table V),11%
same,"increase in ME, pyridine",oral 400 mg (Table V),12%
same,"increase in ME, thiophene",oral 400 mg (Table V),12%
same,"decrease of H value, thiophene (more unpleasant)","oral 400 mg, vs before treatment",40%
same,"increase of H value, nitrobenzene (more pleasant)","oral 400 mg, vs before treatment, not statistically significant",50%
same,"total mean increase in ME, all odors",oral 600 mg (Table VI),6.9%
same,"decrease of H value, pyridine (more unpleasant)",[5],55%
same,"decrease of H value, thiophene (more unpleasant)",[5],37%
same,"increase of H value, amyl acetate (more pleasant)",[5],about 50%
same,"increase of H value, nitrobenzene (more pleasant)",[5],about 50%
